# Assay results published in patent publication US8541584B2, “3-(1,2,3-triazol-4-yl) pyrrolo [2,3-b] pyridine derivatives” (Merck Patent GmbH, priority 2009, dated 2013).
# Experiments:
# Type in all cases: biochemical
# [1] = biological target: T1, TANK binding kinase (TBK1) (Homo sapiens, UniProt Q9UHD2); assay: TBK1 kinase test (384-well flashplate); conditions: 0.6 nM TBK1, 10 μM ATP, 30° C., 120 min
# T1 sequence (Q9UHD2 1-729): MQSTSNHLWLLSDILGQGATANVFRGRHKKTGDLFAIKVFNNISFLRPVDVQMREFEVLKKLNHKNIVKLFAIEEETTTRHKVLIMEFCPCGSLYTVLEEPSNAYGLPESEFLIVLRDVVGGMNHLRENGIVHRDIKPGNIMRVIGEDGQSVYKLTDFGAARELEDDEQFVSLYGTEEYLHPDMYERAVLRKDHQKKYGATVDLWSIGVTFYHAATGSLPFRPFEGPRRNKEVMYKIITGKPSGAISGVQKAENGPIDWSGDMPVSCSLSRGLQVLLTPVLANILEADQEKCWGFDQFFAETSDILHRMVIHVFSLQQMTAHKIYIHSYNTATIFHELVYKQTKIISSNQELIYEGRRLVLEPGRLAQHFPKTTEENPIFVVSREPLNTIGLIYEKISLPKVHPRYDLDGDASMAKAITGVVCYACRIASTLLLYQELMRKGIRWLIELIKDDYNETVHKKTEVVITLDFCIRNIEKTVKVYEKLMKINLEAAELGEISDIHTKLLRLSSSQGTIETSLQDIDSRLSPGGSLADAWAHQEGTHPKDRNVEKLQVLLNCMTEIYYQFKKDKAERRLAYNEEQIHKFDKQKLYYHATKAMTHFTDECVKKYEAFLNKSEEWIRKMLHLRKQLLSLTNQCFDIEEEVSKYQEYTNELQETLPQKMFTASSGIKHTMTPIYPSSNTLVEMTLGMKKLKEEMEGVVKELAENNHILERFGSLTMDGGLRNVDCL
# Description: The kinase assay is performed as 384-well flashplate assay. 0.6 nM TANK binding kinase (TBK1), 800 nM biotinylated MELK-derived peptide (biotin-Ah-Ah-[…]) and 10 μM ATP (with 0.25 μCi of ^33P-ATP/well) are incubated in a total volume of 50 μl (10 mM MOPS, 10 mM magnesium acetate, 0.1 mM EGTA, 1 mM DTT, 0.02% of Brij35, 0.1% of BSA, pH 7.5) with or without test substance at 30° C. for 120 min. The reaction is stopped using 25 μl of 200 mM EDTA solution, filtered off with suction after 30 min at room temperature, and the wells are washed 3 times with 100 μl of 0.9% NaCl solution. The non-specific proportion of the kinase reaction (blank) is determined using 100 nM staurosporine. Radioactivity is measured in the Topcount. IC50 values are calculated using RS1.
# [2] = biological target: T2, PDK1 (Homo sapiens, UniProt O15530); assay: Test for the inhibition of PDK1 (384-well flashplate, 33P-ATP); conditions: His6-PDK1 3.4 nM, 4 μM ATP, 30° C., 60 min
# T2 construct: His6 (N)
# T2 sequence (O15530 51-556 limits assumed): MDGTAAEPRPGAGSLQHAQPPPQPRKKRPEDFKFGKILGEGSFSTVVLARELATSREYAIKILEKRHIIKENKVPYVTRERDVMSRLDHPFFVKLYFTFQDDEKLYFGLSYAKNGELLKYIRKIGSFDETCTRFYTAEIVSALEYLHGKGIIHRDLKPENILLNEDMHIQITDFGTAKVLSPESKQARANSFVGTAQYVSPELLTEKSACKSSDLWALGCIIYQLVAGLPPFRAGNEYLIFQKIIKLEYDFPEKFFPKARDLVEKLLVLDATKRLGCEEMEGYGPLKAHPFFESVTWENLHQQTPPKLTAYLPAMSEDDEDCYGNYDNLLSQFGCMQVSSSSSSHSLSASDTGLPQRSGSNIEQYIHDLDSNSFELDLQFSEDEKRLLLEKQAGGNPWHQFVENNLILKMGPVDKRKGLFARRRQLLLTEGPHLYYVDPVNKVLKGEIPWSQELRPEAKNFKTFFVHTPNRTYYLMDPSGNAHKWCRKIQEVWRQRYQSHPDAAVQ
# Description: 4.0 Test for the Inhibition of PDK1
# The experimental batches are carried out in a flashplate system with 384 wells/microtitration plate.
# In each case, the PDK1 sample His6-PDK1(1-50)(3.4 nM), the PDK1 substrate biotin-bA-bA-[…] (400 nM), 4 μM ATP (with 0.2 μCi of ^33P-ATP/well) and the test substance in 50 μl of conventional experimental solution per well are incubated at 30° C. for 60 min. The test substances are employed in corresponding concentrations (if desired in a dilution series). The control is carried out without test substance. The reaction is stopped using standard methods and washed. The activity of the kinase is measured via the incorporated radioactivity in top count. In order to determine the non-specific kinase reaction (blank value), the experimental batches are carried out in the presence of 100 nM staurosporin.
# The radioactivity (decompositions per minute) of the blank value (no use of test substance in the presence of staurosporin) is subtracted from all other radioactivity values. The controls (kinase activity without test substance) are set equal to 100 percent and all other radioactivity values (after subtracting the blank value) are expressed set in relation thereto (for example in % of the control).
# IC50 values (50% inhibition) are determined with the aid of statistics programmes, such as, for example, RS1.
# [3] = biological target: T3, IKKε (Homo sapiens, UniProt Q14164); assay: IKKε kinase test (384-well flashplate); conditions: 1 nM IKKε, 10 μM ATP, 30° C., 120 min; read-out: IC50 [IKKepsilon]
# T3 sequence (Q14164 1-716): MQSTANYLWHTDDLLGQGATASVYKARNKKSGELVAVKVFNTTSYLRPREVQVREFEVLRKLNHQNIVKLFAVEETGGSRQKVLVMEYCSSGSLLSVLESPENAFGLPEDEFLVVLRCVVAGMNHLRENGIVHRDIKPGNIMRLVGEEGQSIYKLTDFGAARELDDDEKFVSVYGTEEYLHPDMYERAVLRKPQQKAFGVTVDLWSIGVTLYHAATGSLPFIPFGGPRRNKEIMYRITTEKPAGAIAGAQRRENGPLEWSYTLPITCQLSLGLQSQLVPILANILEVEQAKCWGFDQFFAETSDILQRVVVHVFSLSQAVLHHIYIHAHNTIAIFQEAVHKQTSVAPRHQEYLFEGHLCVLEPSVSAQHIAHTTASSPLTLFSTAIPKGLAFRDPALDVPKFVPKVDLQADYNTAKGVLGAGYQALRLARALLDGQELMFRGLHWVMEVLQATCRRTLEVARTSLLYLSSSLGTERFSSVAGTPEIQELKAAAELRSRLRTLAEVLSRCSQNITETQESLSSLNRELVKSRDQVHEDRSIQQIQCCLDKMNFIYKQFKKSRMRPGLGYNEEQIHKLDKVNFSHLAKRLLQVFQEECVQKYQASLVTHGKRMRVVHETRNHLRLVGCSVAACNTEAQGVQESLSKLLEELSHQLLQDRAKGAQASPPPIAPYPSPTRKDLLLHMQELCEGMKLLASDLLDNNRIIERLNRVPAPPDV
# Description: IKKε—Kinase Test (IKKepsilon)
# The kinase assay is performed as 384-well flashplate assay.
# 1 nM IKKε, 800 nM biotinylated IκBα(19-42) peptide (biotin-C6-C6-[…]) and 10 μM ATP (with 0.3 μCi of ^33P-ATP/well) are incubated in a total volume of 50 μl (10 mM MOPS, 10 mM magnesium acetate, 0.1 mM EGTA, 1 mM dithiothreitol, 0.02% of Brij35, 0.1% of BSA, 0.1% of BioStab, pH 7.5) with or without test substance at 30° C. for 120 min. The reaction is stopped using 25 μl of 200 mM EDTA solution, filtered off with suction after 30 min at room temperature, and the wells are washed 3 times with 100 μl of 0.9% NaCl solution. The non-specific proportion of the kinase reaction (blank) is determined using 3 μM EMD 1126352 (BX-795). Radioactivity is measured in the Topcount. IC50 values are calculated using RS1.
IC50 [1] [µM],IC50 [2] [µM],IC50 [3] [µM],Compound
0.0005 to 1,0.0005 to 1,0.0005 to 1,"Cn1cc(-c2cnc3[nH]cc(-c4cn(CCc5ccccc5)nn4)c3c2)cn1 [Compound A16, 5-(1-Methyl-1H-pyrazol-4-yl)-3-(1-phenethyl-1H-1,2,3-triazol-4-yl)-1H-pyrrolo[2,3-b]-pyridine]"
0.0005 to 1,0.0005 to 1,0.0005 to 1,"Cn1cc(-c2cnc3[nH]cc(-c4cn(CCN5CCOCC5)nn4)c3c2)cn1 [Compound A18, 5-(1-Methyl-1H-pyrazol-4-yl)-3-[1-(2-morpholin-4-ylethyl)-1H-1,2,3-triazol-4-yl]-1H-pyrrolo[2,3-b]pyridine]"
